Tested on: flavanone biosynthesis in recombinant yeast strain INV-4G
Test: Eriodictyol production from caffeic acid by INV-4G in the presence of luteolin
Type: cell-based, S. cerevisiae
Conditions: varying luteolin concentrations (1, 3, 10 mg/L)
Text: Heterologous expression and fermentation. In order to assemble the two different flavone biosynthetic pathways, recombinant INVSc1 carrying plasmid Ycc4c181G was transformed with YC-FSI, YC-FSII or YC-FSII+CPR1 separately, yielding recombinant strains INV-4G+FSI, INV-4G+FSII, and INV-4G+FSII+CPR1. Yeast colonies harboring both plasmids were selected upon growth on SC agar plates lacking leucine and tryptophan (SC-Leu-Trp-). For flavone fermentation purposes, an individual recombinant yeast colony was grown overnight in 10-mL liquid SC-Leu-Trp-containing glucose at 30° C. with shaking. The following day, a portion of this culture was used to seed the main culture of SC-Leu-Trp-containing galactose and raffinose or MA-Leu-Trp-containing galactose and acetate to an Ab600 of 0.4. 0.5 mM of phenylpropanoid acid (cinnamic acid, p-coumaric acid, caffeic acid, ferulic acid) was then added to the main culture, and incubation was carried out at 30° C. with horizontal shaking for a maximum of 92 hours.
The efficiency of eriodictyol production from caffeic acid by INV-4G in the presence of varying luteolin concentrations was also tested.

SMILES: O=c1cc(-c2ccc(O)c(O)c2)oc2cc(O)cc(O)c12 [luteolin]
- regulation (feedback inhibition) of flavanone biosynthesis: did not regulate

Source: patent US7807422B2, “Production of flavonoids by recombinant microorganisms” (The Research Foundation of State University of New York, priority 2004, dated 2010)
